{"source": "ChEMBL document CHEMBL1149953", "about": "(Bioorg Med Chem Lett, 1996)", "key": {"Rattus norvegicus [1]": {"tested_on": "Rattus norvegicus", "assay": "In vivo potency to inhibit the pressor response induced by angiotensin II (100ng/Kg, iv) in conscious normotensive rat at 6 hours after administration of 0.3 mg/kg, po", "assay_type": "functional"}, "Rattus norvegicus [2]": {"tested_on": "Rattus norvegicus", "assay": "Compound was tested for antihypertensive effect in renal hypertensive rats at 1 mg/kg, po expressed as percent reduction in blood pressure", "assay_type": "functional"}, "Rattus norvegicus [3]": {"tested_on": "Rattus norvegicus", "assay": "In vivo potency to inhibit the pressor response induced by angiotensin II (100ng/Kg, iv) in conscious normotensive rat at 6 hours after administration of 1 mg/kg, po", "assay_type": "functional"}, "Rattus norvegicus [4]": {"tested_on": "Rattus norvegicus", "assay": "In vivo potency to inhibit the pressor response induced by angiotensin II (100ng/Kg, iv) in conscious normotensive rat at 24 hours after administration of 0.3 mg/kg, po", "assay_type": "functional"}, "Rattus norvegicus [5]": {"tested_on": "Rattus norvegicus", "assay": "In vivo potency to inhibit the pressor response induced by angiotensin II (100ng/Kg, iv) in conscious normotensive rat at 24 hours after administration of 0.1 mg/kg, po"}, "Rattus norvegicus [6]": {"tested_on": "Rattus norvegicus", "assay": "In vivo potency to inhibit the pressor response induced by angiotensin II (100ng/Kg, iv) in conscious normotensive rat at 6 hours after administration of 0.1 mg/kg, po"}, "Rattus norvegicus [7]": {"tested_on": "Rattus norvegicus", "assay": "Compound was tested for antihypertensive effect in renal hypertensive rats at 0.3 mg/kg, po expressed as percent reduction in blood pressure", "assay_type": "functional"}, "Rattus norvegicus [8]": {"tested_on": "Rattus norvegicus", "assay": "In vivo potency to inhibit the pressor response induced by angiotensin II (100ng/Kg, iv) in conscious normotensive rat at 24 hours after administration of 1 mg/kg, po", "assay_type": "functional"}, "Rattus norvegicus [9]": {"tested_on": "Rattus norvegicus", "assay": "In vivo potency to inhibit the pressor response induced by angiotensin II (100ng/Kg, iv) in conscious normotensive rat at 24 hours after administration of 3 mg/kg, po", "assay_type": "functional", "details": "for inhibition in vivo at 3 mg/kg: Rattus norvegicus, po, 24 h"}, "[10]": {"molecular_target": "T1, Type-1 angiotensin II receptor B (Rattus norvegicus, UniProt P29089)", "T1 sequence (P29089 whole entry)": "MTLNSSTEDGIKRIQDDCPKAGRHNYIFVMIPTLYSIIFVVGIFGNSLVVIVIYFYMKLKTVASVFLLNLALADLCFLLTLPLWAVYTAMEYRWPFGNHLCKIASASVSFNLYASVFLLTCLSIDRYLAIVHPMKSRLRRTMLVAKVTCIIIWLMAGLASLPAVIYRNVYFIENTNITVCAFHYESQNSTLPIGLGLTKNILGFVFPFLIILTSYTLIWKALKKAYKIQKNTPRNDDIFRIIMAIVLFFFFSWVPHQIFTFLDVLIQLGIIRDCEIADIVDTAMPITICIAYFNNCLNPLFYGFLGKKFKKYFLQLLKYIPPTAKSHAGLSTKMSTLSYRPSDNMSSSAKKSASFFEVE", "assay": "In vitro ability to displace the specific binding of [125I]-A II from receptors in rat liver membrane(type 1 receptor)"}, "Rattus norvegicus [11]": {"tested_on": "Rattus norvegicus", "assay": "In vivo potency to inhibit the pressor response induced by angiotensin II (100ng/Kg, iv) in conscious normotensive rat at 6 hours after administration of 3 mg/kg, po", "assay_type": "functional", "details": "for inhibition in vivo at 3 mg/kg: Rattus norvegicus, po, 6 h"}, "Rattus norvegicus [12]": {"tested_on": "Rattus norvegicus", "assay": "Compound was tested for antihypertensive effect in renal hypertensive rats at 3 mg/kg, po expressed as percent reduction in blood pressure", "assay_type": "functional"}, "Rattus norvegicus [13]": {"tested_on": "Rattus norvegicus", "assay": "Compound was tested for antihypertensive effect in renal hypertensive rats at 10 mg/kg, po expressed as percent reduction in blood pressure", "assay_type": "functional"}, "Rattus norvegicus [14]": {"tested_on": "Rattus norvegicus", "assay": "Antihypertensive effect as reduction in blood pressure in renal hypertensive rats at 10 mg/kg dose specified administered perorally", "assay_type": "functional", "set-up": "scale not given: the % may be the effect or the level left", "details": "route oral"}, "Rattus norvegicus [15]": {"tested_on": "Rattus norvegicus", "assay": "In vivo potency to inhibit the pressor responses induced by angiotensin II (100ng/kg, iv) in conscious normotensive rat at 1 mg/kg dose specified 6 hr upon peroral administration", "assay_type": "functional", "details": "route oral"}, "Rattus norvegicus [16]": {"tested_on": "Rattus norvegicus", "assay": "In vivo potency to inhibit the pressor responses induced by angiotensin II (100ng/kg, iv) in conscious normotensive rat at 1 mg/kg dose specified 24 hr after peroral administration", "assay_type": "functional", "details": "route oral"}, "Rattus norvegicus [17]": {"tested_on": "Rattus norvegicus", "assay": "Antihypertensive effect as reduction in blood pressure in renal hypertensive rats at 3 mg/kg dose specified administered perorally", "assay_type": "functional", "set-up": "scale not given: the % may be the effect or the level left", "details": "route oral"}, "Rattus norvegicus [18]": {"tested_on": "Rattus norvegicus", "assay": "In vivo potency to inhibit the pressor responses induced by angiotensin II (100ng/kg, iv) in conscious normotensive rat at 3 mg/kg dose specified 6 hr upon peroral administration", "assay_type": "functional", "details": "route oral"}, "Rattus norvegicus [19]": {"tested_on": "Rattus norvegicus", "assay": "In vivo potency to inhibit the pressor responses induced by angiotensin II (100ng/kg, iv) in conscious normotensive rat at 3 mg/kg dose specified 24 hr after peroral administration", "assay_type": "functional", "details": "route oral"}, "Rattus norvegicus [20]": {"tested_on": "Rattus norvegicus", "assay": "In vivo potency to inhibit the pressor responses induced by angiotensin II (100ng/kg, iv) in conscious normotensive rat at 10 mg/kg dose specified 24 hr after peroral administration", "assay_type": "functional", "details": "route oral"}, "Rattus norvegicus [21]": {"tested_on": "Rattus norvegicus", "assay": "In vivo potency to inhibit the pressor responses induced by angiotensin II (100ng/kg, iv) in conscious normotensive rat at 10 mg/kg dose specified 6 hr upon peroral administration", "assay_type": "functional", "details": "route oral"}}}
{"smiles": "CCc1nn(Cc2ccc(-c3ccccc3-c3nn[nH]n3)cc2)/c(=N/C(=O)C2=C(C(=O)[O-])CCC2)s1.[K+]", "values": [{"measurement": "Inhibition", "setting": "Rattus norvegicus [1]", "result": 45.4, "unit": "%"}, {"measurement": "Reduction", "setting": "Rattus norvegicus [2]", "result": 38.4, "unit": "%"}, {"measurement": "Inhibition", "setting": "Rattus norvegicus [3]", "result": 72.1, "unit": "%"}, {"measurement": "Inhibition", "setting": "Rattus norvegicus [4]", "result": 20.7, "unit": "%"}, {"measurement": "Inhibition", "setting": "Rattus norvegicus [5]", "result": -0.7, "unit": "%"}, {"measurement": "Inhibition", "setting": "Rattus norvegicus [6]", "result": 11.4, "unit": "%"}, {"measurement": "Reduction", "setting": "Rattus norvegicus [7]", "result": 27.2, "unit": "%"}, {"measurement": "Inhibition", "setting": "Rattus norvegicus [8]", "result": 57, "unit": "%"}]}
{"smiles": "CCc1nn(Cc2ccc(-c3ccccc3-c3nn[nH]n3)cc2)/c(=N/C(C)=O)s1", "values": [{"measurement": "inhibition in vivo at 3 mg/kg", "setting": "Rattus norvegicus [9]", "result": -10.3, "unit": "%"}, {"measurement": "IC50", "setting": "[10]", "result": 7.2, "unit": "nM"}, {"measurement": "inhibition in vivo at 3 mg/kg", "setting": "Rattus norvegicus [11]", "result": 11.3, "unit": "%"}]}
{"smiles": "CCc1nn(Cc2ccc(-c3ccccc3-c3nn[nH]n3)cc2)/c(=N/C(=O)C2=C(C(=O)O)CCC2)s1", "values": [{"measurement": "Inhibition", "setting": "Rattus norvegicus [1]", "result": 22.4, "unit": "%"}, {"measurement": "Reduction", "setting": "Rattus norvegicus [2]", "result": 33.5, "unit": "%"}, {"measurement": "Inhibition", "setting": "Rattus norvegicus [9]", "result": 63.1, "unit": "%"}, {"measurement": "Inhibition", "setting": "Rattus norvegicus [3]", "result": 36.4, "unit": "%"}, {"measurement": "inhibition in vivo at 0.3 mg/kg", "setting": "Rattus norvegicus [4]; Rattus norvegicus, po, 24 h", "result": 15, "unit": "%"}, {"measurement": "Reduction", "setting": "Rattus norvegicus [12]", "result": 44.3, "unit": "%"}, {"measurement": "IC50", "setting": "[10]", "result": 0.44, "unit": "nM"}, {"measurement": "Inhibition", "setting": "Rattus norvegicus [11]", "result": 39.5, "unit": "%"}, {"measurement": "Inhibition", "setting": "Rattus norvegicus [8]", "result": 36.6, "unit": "%"}]}
{"smiles": "CCc1nn(Cc2ccc(-c3ccccc3-c3nn[nH]n3)cc2)/c(=N/C(=O)c2ccccc2Cl)s1", "values": [{"measurement": "inhibition in vivo at 3 mg/kg", "setting": "Rattus norvegicus [9]", "result": -11.3, "unit": "%"}, {"measurement": "Reduction", "setting": "Rattus norvegicus [13]", "result": 20.2, "unit": "%"}, {"measurement": "IC50", "setting": "[10]", "result": 3.6, "unit": "nM"}, {"measurement": "inhibition in vivo at 3 mg/kg", "setting": "Rattus norvegicus [11]", "result": 21.3, "unit": "%"}]}
{"smiles": "CCc1nn(Cc2ccc(-c3ccccc3-c3nn[nH]n3)cc2)/c(=N/C(=O)c2ccccc2C(=O)O)s1", "values": [{"measurement": "inhibition in vivo at 3 mg/kg", "setting": "Rattus norvegicus [9]", "result": 23.2, "unit": "%"}, {"measurement": "Reduction", "setting": "Rattus norvegicus [13]", "result": 33.8, "unit": "%"}, {"measurement": "Reduction", "setting": "Rattus norvegicus [12]", "result": 25.1, "unit": "%"}, {"measurement": "IC50", "setting": "[10]", "result": 0.66, "unit": "nM"}, {"measurement": "inhibition in vivo at 3 mg/kg", "setting": "Rattus norvegicus [11]", "result": 48.1, "unit": "%"}]}
{"smiles": "CCCCc1nc(Cl)c(CO)n1Cc1ccc(-c2ccccc2-c2nnn[n-]2)cc1.[K+]", "note": "[LOSARTAN POTASSIUM]", "values": [{"measurement": "Activity", "setting": "Rattus norvegicus [14]", "result": 40.4, "unit": "%"}, {"measurement": "inhibition in vivo at 1 mg/kg", "setting": "Rattus norvegicus [15]", "result": 19.3, "unit": "%"}, {"measurement": "inhibition in vivo at 1 mg/kg", "setting": "Rattus norvegicus [16]", "result": 7.3, "unit": "%"}, {"measurement": "Activity", "setting": "Rattus norvegicus [17]", "result": 27.4, "unit": "%"}, {"measurement": "inhibition in vivo at 3 mg/kg", "setting": "Rattus norvegicus [18]", "result": 50.1, "unit": "%"}, {"measurement": "inhibition in vivo at 3 mg/kg", "setting": "Rattus norvegicus [19]", "result": 27.9, "unit": "%"}, {"measurement": "inhibition in vivo at 10 mg/kg", "setting": "Rattus norvegicus [20]", "result": 57.4, "unit": "%"}, {"measurement": "inhibition in vivo at 10 mg/kg", "setting": "Rattus norvegicus [21]", "result": 74.2, "unit": "%"}]}
{"smiles": "CCc1nn(Cc2ccc(-c3ccccc3-c3nn[nH]n3)cc2)/c(=N/C(=O)c2ccccc2)s1", "values": [{"measurement": "inhibition in vivo at 3 mg/kg", "setting": "Rattus norvegicus [9]", "result": -0.4, "unit": "%"}, {"measurement": "IC50", "setting": "[10]", "result": 37, "unit": "nM"}, {"measurement": "inhibition in vivo at 3 mg/kg", "setting": "Rattus norvegicus [11]", "result": 4.9, "unit": "%"}]}
{"smiles": "CCc1nn(Cc2ccc(-c3ccccc3-c3nn[nH]n3)cc2)/c(=N/C(=O)C2CC2)s1", "values": [{"measurement": "inhibition in vivo at 3 mg/kg", "setting": "Rattus norvegicus [9]", "result": -12.4, "unit": "%"}, {"measurement": "IC50", "setting": "[10]", "result": 6.5, "unit": "nM"}, {"measurement": "inhibition in vivo at 3 mg/kg", "setting": "Rattus norvegicus [11]", "result": 7.8, "unit": "%"}]}
